The source of these data is paper PMC9386001, “Identification of naturally occurring inhibitors in Xian-Ling-Gu-Bao capsule against the glucuronidation of estrogens” (Frontiers in Pharmacology, 2022).

A value given as a limit tells only on which side of the number the result lay.

The target in data set [1] is T1, UGT1A1 (Homo sapiens, UniProt P22309).
T1 sequence (P22309 26-533): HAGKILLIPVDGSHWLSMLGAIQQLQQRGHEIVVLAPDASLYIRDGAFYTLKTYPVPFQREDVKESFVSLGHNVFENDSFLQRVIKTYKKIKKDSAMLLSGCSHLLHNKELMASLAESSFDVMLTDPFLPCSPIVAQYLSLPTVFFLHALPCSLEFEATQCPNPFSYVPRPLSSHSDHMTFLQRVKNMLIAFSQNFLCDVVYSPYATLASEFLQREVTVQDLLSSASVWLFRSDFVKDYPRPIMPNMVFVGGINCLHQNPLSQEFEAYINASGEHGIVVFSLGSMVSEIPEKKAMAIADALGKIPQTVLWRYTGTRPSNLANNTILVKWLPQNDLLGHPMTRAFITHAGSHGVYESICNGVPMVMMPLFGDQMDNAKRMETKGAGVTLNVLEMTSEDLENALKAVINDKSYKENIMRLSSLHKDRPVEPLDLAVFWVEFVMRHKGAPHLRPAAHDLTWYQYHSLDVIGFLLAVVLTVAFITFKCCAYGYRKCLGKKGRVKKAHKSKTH
Briefly: Estrogen glucuronidation kinetics by expressed UGT1A1. The conditions noted are these: 3-O-glucuronide formation. The procedure: (§1) In brief, incubation mixtures (100 μL) contained Tris-HCl buffer solution (50 mM, pH = 7.4), microsomes (HLM, HIM, 0.5 mg/ml) or UGT enzymes (1 mg/ml), MgCl2 (0.88 mM), alamethicin (22 μg/ml), and D-saccharic-1,4-lactone (4.4 mM) and respective substrate. The volume of organic solvent in incubation mixtures was kept below 1%. After pre-incubation at 37°C for 5 min, the reaction was commenced with the addition of UDPGA (4 mM) and subsequently incubated at 37°C for a period. The reaction was terminated by adding 100 μL of cold acetonitrile. Then, the incubation mixtures were vortexed and centrifuged at 13,800 g for 10 min to collect the supernatant for analysis.
(§2) All experiments were performed in triplicate.
(§3) Glucuronidation rates were expressed as the amounts of formed metabolites per minute per milligram protein (pmol/min/mg protein) based on Eq. 1. Furthermore, kinetic characteristics were evaluated from the suitable curves based on the profile of the Eadie–Hofstee plot, and corresponding kinetic parameters were estimated using Eqs 2–4. Appropriated model fitting was performed by GraphPad Prism V5 software (San Diego, CA).
(§4) The intrinsic clearance (CL int ) was derived from V max /K m for Michaelis–Menten and substrate inhibition models, and the maximal clearance (CL max ) was obtained using Eq. 5 for Hill kinetics. Vg=Cs∗V/Cprotein∗T∗Vprotein. […]

Data set [2] concerns the target T2, UGT1A10 (Homo sapiens, UniProt Q9HAW8).
T2 sequence (Q9HAW8 26-530): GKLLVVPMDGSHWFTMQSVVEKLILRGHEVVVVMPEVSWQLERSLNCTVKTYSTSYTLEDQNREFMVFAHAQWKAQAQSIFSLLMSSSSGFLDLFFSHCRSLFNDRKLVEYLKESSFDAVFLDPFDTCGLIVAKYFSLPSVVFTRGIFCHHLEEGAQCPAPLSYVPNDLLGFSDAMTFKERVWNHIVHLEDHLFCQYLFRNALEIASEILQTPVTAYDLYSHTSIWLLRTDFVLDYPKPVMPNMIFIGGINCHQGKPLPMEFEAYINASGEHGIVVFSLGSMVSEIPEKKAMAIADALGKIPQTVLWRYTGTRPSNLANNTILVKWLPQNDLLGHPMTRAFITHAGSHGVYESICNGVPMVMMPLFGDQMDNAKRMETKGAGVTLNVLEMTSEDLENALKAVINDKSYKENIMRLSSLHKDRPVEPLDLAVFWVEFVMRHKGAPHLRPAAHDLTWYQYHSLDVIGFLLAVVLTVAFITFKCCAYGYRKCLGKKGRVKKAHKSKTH
Briefly: Glucuronidation kinetics by expressed UGT1A10. The method, then: as §1, with “The glucuronidation assay was conducted as described previously ([Qin et al., 2018]; [Xu et al., 2018]). In” for “In”
as §2, §3
(§5) The intrinsic clearance (CL int ) was derived from V max /K m for Michaelis–Menten and substrate inhibition models, and the maximal clearance (CL max ) was obtained using Eq. 5 for Hill kinetics. Vg=Cs∗V/Cprotein∗T∗Vprotein. (1) V=Vmax×[S]/Km+[S], (2) V=Vmax×[S]/Km+[S](1+[S]/Ksi), (3) V=Vmax×[S]^n/S50n[…], (4) CLmax=Vmax/S50×n−1/n(n−1)^1/n. (5)

In data set [3] the test system is UGT1A1. Set-up: method as in Wang et al., 2015a. The note with it: ref Wang et al., 2015a; cited from earlier work.
Data set [4] has as its target T2, UGT1A10. The data set can be described thus: Inhibition of UGT1A10 (4-methylumbelliferone-O-glucuronidation). The note with it: for Inhibitory type: UGT1A10, best model by smallest AIC and SC; for activity at 10 µM: human, expressed human UGT1A10 enzyme, probe 4-methylumbelliferone (4-MU). The method, then:
(§6) The final volume of solvent in incubations was 1%. In addition, emodin, atazanavir, and diclofenac were considered as positive controls for UGT1A10, UGT1A1, and UGT2B7, respectively.
(§7) Competitive inhibition, non-competitive inhibition, and mixed-type inhibition models were used to estimate the Ki values by nonlinear regression based on Eqs 6–8, respectively.

The target of a further data set is T3, UGT2B7 (Homo sapiens, UniProt P16662).
T3 sequence (P16662 24-529): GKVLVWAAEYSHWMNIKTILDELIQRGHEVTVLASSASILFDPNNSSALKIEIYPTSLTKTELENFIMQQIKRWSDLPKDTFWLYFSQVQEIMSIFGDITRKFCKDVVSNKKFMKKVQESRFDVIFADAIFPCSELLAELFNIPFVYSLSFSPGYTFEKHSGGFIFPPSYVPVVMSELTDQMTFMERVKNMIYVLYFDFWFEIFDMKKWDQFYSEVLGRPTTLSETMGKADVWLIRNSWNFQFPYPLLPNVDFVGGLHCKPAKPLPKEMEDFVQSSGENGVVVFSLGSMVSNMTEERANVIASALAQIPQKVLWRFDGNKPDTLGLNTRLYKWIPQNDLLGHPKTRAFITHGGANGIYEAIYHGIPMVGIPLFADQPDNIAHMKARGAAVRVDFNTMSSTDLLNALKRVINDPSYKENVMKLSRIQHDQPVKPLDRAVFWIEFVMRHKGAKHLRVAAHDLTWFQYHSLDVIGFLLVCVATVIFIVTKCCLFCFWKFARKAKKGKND
Briefly: Inhibition of UGT2B7 (zidovudine-N-glucuronidation). The conditions noted are these: for Inhibitory type / α: UGT2B7; for Inhibitory type: best model by smallest AIC and SC; for α: mixed-type inhibition model, αKi; for activity at 10 µM: human, UGT2B7 enzyme (optimized UGT2B7 incubation system), probe zidovudine (AZT). The method, then: as §6, §7

The target of data set [5] is T1, UGT1A1. The data set can be described thus: Inhibition of UGT1A1 (β-estradiol-3-O-glucuronidation). The note with it: for Inhibitory type: UGT1A1, best model by smallest AIC and SC; for activity at 10 µM: human, human UGT1A1 enzyme, probe β-estradiol (E2). The procedure:
as §6, §7

The subject of data set [6] is human liver microsomes (HLM). Briefly: Estrogen glucuronidation kinetics by HLM. In kind it is in vitro ADME. The conditions noted are these: HLM; 3-O-glucuronide formation. The method, then: as §1, §2, §3, §5
The test system of data set [7] is human intestine microsomes (HIM). The data set can be described thus: Estrogen glucuronidation kinetics by HIM. The note with it: HIM, 3-O-glucuronide formation. In kind it is in vitro ADME. The method, then: as §2
(§8) Vg=Cs∗V/Cprotein∗T∗Vprotein. […] (5)

Data set [8] is described as follows: Estrogen glucuronidation kinetics by HIM. The note with it: human, human intestine microsomes, pH 7.4, HIM; 3-O-glucuronide formation; read-out: CL int or CL max. In kind it is in vitro ADME, human. The method, then: as §2, §8
Another data set concerns the target T4, UGT1A3 (Homo sapiens, UniProt P35503).
T4 construct: purchased Corning Biosciences
T4 sequence (P35503 29-534): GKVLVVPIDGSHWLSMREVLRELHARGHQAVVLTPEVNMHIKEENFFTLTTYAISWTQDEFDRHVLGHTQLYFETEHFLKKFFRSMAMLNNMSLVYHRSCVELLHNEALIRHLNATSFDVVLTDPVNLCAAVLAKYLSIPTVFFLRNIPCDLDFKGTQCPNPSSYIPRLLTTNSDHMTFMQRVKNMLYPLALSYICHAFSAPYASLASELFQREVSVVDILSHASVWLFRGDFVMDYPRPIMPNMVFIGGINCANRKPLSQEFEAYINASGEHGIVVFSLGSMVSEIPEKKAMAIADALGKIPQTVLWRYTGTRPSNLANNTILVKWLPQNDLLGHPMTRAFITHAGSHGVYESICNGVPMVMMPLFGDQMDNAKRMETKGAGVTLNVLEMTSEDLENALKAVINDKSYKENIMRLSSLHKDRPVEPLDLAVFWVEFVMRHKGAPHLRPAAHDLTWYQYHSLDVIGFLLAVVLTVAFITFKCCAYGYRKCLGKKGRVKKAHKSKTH
The data set can be described thus: Estrogen glucuronidation kinetics by expressed UGT1A3. The data set is classed as in vitro ADME. The procedure: as §1, §2, §3, §4

For data set [9], the target named is T2, UGT1A10. Set-up: purchased Corning Biosciences. The note with it: substrate of UGT1A10; ref Xin et al., 2016; Gao et al., 2020; cited from earlier work.
Substrate in data set [10]: C[C@]12CC[C@@H]3c4ccc(O)cc4CC[C@H]3[C@@H]1CCC2=O
Briefly: Estrogen glucuronidation kinetics by expressed UGT1A3. The conditions noted are these: other: UGT1A3; 3-O-glucuronide formation; pH 7.4; 37.0 °C. The data set is classed as in vitro ADME, human.

Consider `C[C@]12CC[C@@H]3c4ccc(O)cc4CC[C@H]3[C@@H]1CC[C@@H]2O` [E2, β-estradiol], for which the figures for the “K m or S50” value on UGT1A1 [1], at UGT1A10 [2] (3-O-glucuronide formation) and on UGT1A10 [2] (17-O-glucuronide formation) were 11.08 ± 0.48 µM, 113.2 ± 46.66 µM and 16.39 ± 3.53 µM, respectively. The molecule further showed a V max at UGT1A1 [1] of 754.9 ± 15.14 pmol/min/mg. The molecule also gave a Ki at UGT1A10 [2] (3-O-glucuronide formation, substrate inhibition constant) of 71980 ± 35770 nM.

Consider `CC(C)=CCc1cc2c(cc1O)O[C@H](c1ccc(O)cc1)CC2=O` [Bavachin, bavachin], for which the Ki in the data set with UGT1A1 [3] was below 1000 nM. Also, at UGT1A10 [4], the midpoint of inhibition, the IC50, lay at 5630 ± 460 nM; the Ki amounted to 2810 ± 210 nM; the Inhibitory type result is recorded as “Competitive”; the activity at 10 µM is 35.6%. Also, on UGT2B7, the 50% inhibitory concentration (IC50) (as a rule, the concentration that inhibits the measured activity by half) came out at 4970 ± 550 nM; the Ki stood at 640 ± 160 nM; the Inhibitory type result is “Mixed type”; the α worked out at 69.70 ± 6.67. The same molecule returned an activity at 10 µM at UGT2B7 of 32.5%. At UGT1A1 [5], the half-maximal inhibitory concentration (IC50) turned out to be 610 ± 20 nM, the Ki stood at 400 ± 50 nM, the Inhibitory type entry is listed as “Non-competitive” and the activity at 10 µM amounted to 2.43%.

`C[C@]12CC[C@@H]3c4ccc(O)cc4CC[C@H]3[C@@H]1CCC2=O` [E1, Estrone]: the “K m or S50” value in data set [6] was determined as 6.87 ± 0.59 µM; in data set [7], 8.82 ± 0.37 µM. For the same molecule, the h in data set [7] (Hill coefficient) is listed as 1.63 ± 0.09; at UGT1A3 (3-O-glucuronide formation, Hill coefficient), 2.09 ± 0.16. For the same molecule, the microsomal CLint in [8] turned out to be 25.25 ± 0.24 µL/min/mg; on UGT1A3 (human, recombinant (expressed) UGT1A3, pH 7.4, 3-O-glucuronide formation, read-out: CL int or CL max), 11.7 ± 0.95 µL/min/mg.

For the molecule `Cc1cc(=O)oc2cc(O)ccc12` [4-MU, 4-methylumbelliferone], at UGT1A10 [9], the Km (usually the substrate concentration at which the rate is half of its maximum) is around 60 µM.

With `CC(C)=CCC/C(C)=C/Cc1cc(-c2coc3cc(O)ccc3c2=O)ccc1O` [Corylifol A, corylifol A], in the data set with UGT1A1 [3], the Ki is below 1000 nM. In addition, at UGT1A10 [4], the midpoint of inhibition, the IC50, lay at 2910 ± 340 nM; the Ki is 780 ± 60 nM; the Inhibitory type result was “Non-competitive”; the activity at 10 µM was 13.9%. Moreover, at UGT2B7, the IC50 stood at 880 ± 80 nM, the Ki was 360 ± 70 nM, the Inhibitory type result is listed as “Mixed type” and the α came to 5.17 ± 3.55. Further, the activity at 10 µM on UGT2B7 was found to be 0%. In addition, at UGT1A1 [5], the IC50 came out at 440 ± 50 nM, the Ki was 440 ± 70 nM, the Inhibitory type result is listed as “Competitive” and the activity at 10 µM was determined as 0.72%.

B1: UGT1A3 (Homo sapiens) (protein)
chain: GKVLVVPIDGSHWLSMREVLRELHARGHQAVVLTPEVNMHIKEENFFTLTTYAISWTQDEFDRHVLGHTQLYFETEHFLKKFFRSMAMLNNMSLVYHRSCVELLHNEALIRHLNATSFDVVLTDPVNLCAAVLAKYLSIPTVFFLRNIPCDLDFKGTQCPNPSSYIPRLLTTNSDHMTFMQRVKNMLYPLALSYICHAFSAPYASLASELFQREVSVVDILSHASVWLFRGDFVMDYPRPIMPNMVFIGGINCANRKPLSQEFEAYINASGEHGIVVFSLGSMVSEIPEKKAMAIADALGKIPQTVLWRYTGTRPSNLANNTILVKWLPQNDLLGHPMTRAFITHAGSHGVYESICNGVPMVMMPLFGDQMDNAKRMETKGAGVTLNVLEMTSEDLENALKAVINDKSYKENIMRLSSLHKDRPVEPLDLAVFWVEFVMRHKGAPHLRPAAHDLTWYQYHSLDVIGFLLAVVLTVAFITFKCCAYGYRKCLGKKGRVKKAHKSKTH
notes: purchased Corning Biosciences
On to B1, for which the K0.5 in data set [10] turned out to be 9.23 ± 0.39 µM.
